Data: patent US6630478B2, “Methods for treatment of drug-induced peripheral neuropathy” (NeoTherapeutics, Inc., priority 2000, dated 2003)
Entries after “also recorded” stand apart in the source; their conditions may differ.

How the values were obtained:
[1] = Vincristine intoxication in rats, body weight; format: in vivo, Dark Agouti rats; settings: repetitive dosing IP, days 11-19 and 22-31; FIG. 2
Protocol: Animals received vincristine 0.15 mg/ml (IP) per day with the following timing: 5 days of intoxication followed with 2 days without vincristine injection and a new period of 5 days of intox followed with 2 days no intoxication and 2 other days of intoxication with vincristine followed by a 3 week recovery period. The test compound was administered daily from the first day of vincristine injection to the end of the experiments Subjects used were 65 female Dark Agouti rats (200-250 g) (n=13 per group). Five groups were used: (1) a vehicle control group; […] (3) a […]-082 3 mg/kg IP group; (4) a […]-082 10 mg/kg IP group; and (5) a […]-082 30 mg/kg IP group. Behavioral Measurements. The general health and weight of animals were checked every day. Sensorimotor tests were performed twice a week during 6 week study, starting one week before beginning of intoxication (baseline). Drug Administration. The test compound was administered daily by the i.p. route from the first day of intoxication with the vincristine to the end of the experiments.

[2] = tested on: dorsal root ganglion neurons; test: Cisplatin toxicity in cultured dorsal root ganglion neurons, survival rate by acid phosphatase activity; format: cell-based, rat
Protocol: The dorsal root ganglion neurons were obtained from rat fetuses (Wistar rats; E15; Elevage Janvier, Le Genest St Isle). They were dissected and incubated in trypsin 1× (Gibco; Life Technologies, Cergy-Pontoise, France) for 30 min at 37° C. The reaction was stopped by addition of free Hanks balanced salt solution containing calcium and magnesium; (HBSS^+; Gibco) added with 10% of fetal bovine serum (FBS; Gibco) and 0.5 mg/ml DNAse I (Boehringer Mannheim, Meylan, France). The suspension was triturated with a 10-ml pipette and using a needle seringe. After centrifugation, the dissociated cells were resuspended in DMEM containing 10% FBS, 2% of chick embryos extract (Gibco), 1% antibiotics (Gibco) and NGF (Tebu, Le Perray en Yvelines, France) 3 ng/ml final.
Viable cells were counted and seeded at ±50,000 cells /well in 96 well-plates (Nunclon, Life Technologies) coated with poly-L-lysine (0.01 mg/ml, Sigma). Cells were maintained in a humidified incubator at 37° C. in 5% CO2-95% air atmosphere.
After 24 h, the culture medium was completed with anti-mitotic compounds (5-fluoro-5′-deoxyuridine and cytosine β-D-arabinofuranoside) and uridine all 10^−5M final. This treatment is aimed at eliminating contaminating fibroblasts and inhibiting the proliferation of Schwann cells.
Cultures were rinsed 48 hrs later (medium without any growth factors) and medium was replaced with fresh medium (200 μl /well) containing cisplatin (3.5 ng/ml; Sigma) added or not with the reference or test compounds.
After 48 h of intoxication, survival rates were measured using an acid phosphatase enzymatic activity assay.
Acid phosphatase activity was measured according to a previously described method (Ueda et al.; 1994). After removal of the culture medium, wells were rinsed twice with PBS (Life Technologies) and incubated with 100 μl of buffer containing 0.1 M sodium acetate (pH5.5), 0.1% Triton X100 (Sigma) and 10 mM p-nitrophenyl phosphate (Sigma) 1 h at 37° C./5% CO2. Reaction was stopped by addition of 10 μl of 1N NaOH (LPCR, Strasbourg, France). Enzyme activity was measured at 405 nm in a microplate reader (Labsystem, France).
Acid phosphatase activity is proportional to the amount of living cells. The results were expressed as percentage O.D. as compared to control conditions (same rinsing and medium replacements, but no intoxication and no treatment with either NGF, riluzol or the test compounds).

Caudal nerve = test: Vincristine-induced neuropathy, sensitive nerve conduction velocity (SNCV); format: in vivo, Dark Agouti rats
Protocol: (§1) Animals received vincristine 0.15 mg/ml (IP) per day with the following timing: 5 days of intoxication followed with 2 days without vincristine injection and a new period of 5 days of intox followed with 2 days no intoxication and 2 other days of intoxication with vincristine followed by a 3 week recovery period. The test compound was administered daily from the first day of vincristine injection to the end of the experiments
(§2) Subjects used were 65 female Dark Agouti rats (200-250 g) (n=13 per group). Five groups were used: (1) a vehicle control group; (2) a vincristine-vehicle group;: (3) a vicristine+AIT-082 3 mg/kg IP group; (4) a vicristine+AIT-082 10 mg/kg IP group; and (5) a vicristine+AIT-082 30 mg/kg IP group.
(§3) Electrophysiological Measurements. Electrophysiological recordings were performed once a week using a Neuromatic 2000M electromyographical apparatus (Dantec, France). EMG were performed under Ketamine anesthesia (Imalgène 500®, Merieux, France).
(§4) The measured parameters were: the sensitive nerve conduction velocity (SNCV), the amplitude and the latency compound muscle action potential (CMAP).
Sensitive Nerve Conduction Velocity. Skin electrodes were used. Caudal nerve was stimulated with a series of 20 pulses during 0.2 ms at a supramaximal intensity. The mean of 20 stimulations is included for statistical analysis.
Drug Administration. The test compound was administered daily by the i.p. route from the first day of intoxication with the vincristine to the end of the experiments.

[3] = tested on: gastrocnemius muscle after stimulation of the sciatic nerve; test: Vincristine-induced neuropathy, EMG amplitude (compound muscle action potential); format: in vivo, Dark Agouti rats
Protocol: as §1, §2, §3, §4
Compound Muscle Action Potential and Distal Latency. CPAM was measured in gastrocnemius muscle after stimulation of the sciatic nerve. […] The amplitude (mV) and the latency of the response (ms) are measured. […]

sciatic nerve = test: Vincristine-induced neuropathy, morphometric analysis of sciatic nerve; format: in vivo, Dark Agouti rats; settings: end of the treatment periods
Protocol: as §1, §2
Morphometric Analysis. The morphometric analysis was performed on 3 animals per group on sciatic nerve. It includes the measurements of various parameters according to the following procedure: […]
(3) Morphometric analysis: Sections were observed using an optical microscope (Nikon) and morphometric analysis were performed with a semi-automated digital image analysis software (Morphonerf, Alcatel). Per slice, 4 fields were analyzed, the number of myelinated fibers, density of fibers, diameter of fibers, thickness of myelin sheath, surface of myelin sheath and G factor.

BDNF = BDNF content in spinal cord by ELISA; format: in vivo, rat; settings: in drinking water for 7 days
Protocol: In vivo Effects on Expression and Secretion of Nerve Growth Factors: In attempt to further explore the effects of AIT-082 that could be beneficial for chemotherapy-induced neuropathy, additional studies were conducted on dose-related effects on BDNF levels in the spinal cord. In these studies, AIT-082 was administered in drinking water for 7 days and BDNF content was measured by ELISA assay.

[4] = tested on: peripheral nerve sprouting in the skin; test: Peripheral (collateral) nerve sprouting in the skin; format: in vivo; settings: systemically administered, skin of adult rats
Description: (§5) The growth of such nerve tissue is evoked and maintained entirely by the increased levels of NGF in adjacent denervated skin.

axonal regeneration = test: Axonal regeneration after nerve crush; settings: in vivo
Description: (§6) More specifically, as detailed below in the Example, systematically administered AIT-082 closely mimics the effects both of increased levels of endogenous NGF, and of exogenous NGF. […] The growth of such nerve tissue is evoked and maintained entirely by the increased levels of NGF in adjacent denervated skin.

[5] = Induction of hyperalgesia; parameters: species or system adult rats; settings: rat, in vivo
Description: as §5

NGF [6] = test: Endogenous NGF levels in skin; parameters: species or system adult rats; settings: rat, in vivo
Description: as §6

[7] = Clinical trials, safety in patients; format: in vivo; settings: over 1400 patients
Description: The objectives of the studies described in this application are to evaluate AIT-082 and related analogues for their potential utility in the treatment of neuropathies associated with oncolytic therapies. The prototypic compound, AIT-082, is currently in Phase 2 clinical trials for Alzheimer's disease (AD) and has been proven safe in over 1400 patients. Its preclinical pharmacological effects include neuroprotection against excitotoxicity, induction of the synthesis and secretion of neurotrophic and pleiotrophic factors, neuroregenerative effects and proliferative effects on neural progenitor cells. The effects of AIT-082 are unlike any product that has been approved or is currently under evaluation for neuropathies associated with oncolytic agents. AIT-082 and its second generation analogues may arrest or retard neurodegenerative processes, promote neuroregeneration and provide symptomatic relief for cancer patients with neuropathies or at high risk of developing neuropathies.

NGF [8] = settings: rat astrocyte cultures; cited from earlier work
[9] = tested on: basic fibroblast growth factor (bFGF); settings: rat astrocyte cultures; cited from earlier work
neurotrophin 3 (NT-3) = settings: rat astrocyte cultures; cited from earlier work
NGF [10] = settings: astrocytes; cited from earlier work
TGF = settings: astrocytes; cited from earlier work
S 100 = settings: astrocytes; cited from earlier work
[11] = prevention of cisplatin toxicity in DRG cells

## CC[C@]1(O)C[C@H]2CN(CCc3c([nH]c4ccccc34)[C@@](C(=O)OC)(c3cc4c(cc3OC)N(C=O)[C@H]3[C@@](O)(C(=O)OC)[C@H](OC(C)=O)[C@]5(CC)C=CCN6CC[C@]43[C@@H]65)C2)C1 [Vincristine, vincristine]
[1]
  body weight compared to day matched vehicle controls: significant reductions in body weight

## O=C(CCn1cnc2c(=O)[nH]cnc21)Nc1ccc(C(=O)O)cc1 [AIT-082, N-4-carboxyphenyl-3-(6-oxohydropurin-9-yl) propanamide]
[2]; 1 μM, cisplatin intoxication 48 h, FIG. 1
  survival compared to cisplatin alone: significantly increased survival
[2]; doses higher than 1 μM
  effect on survival at higher doses: diminished progressively
[2]; in vitro model, discussion summary
  protection against cisplatin induced neurotoxicity: statistically significant protection
[2]; [11]
  effect compared with 5 ng/ml of NGF: greater effect
  potency relative to riluzole: 10 times
Caudal nerve; day 17 (intoxication phase) and day 31 (recovery phase), 3-30 mg/kg IP
  sensory nerve conduction velocity: significant and dose-related changes
Caudal nerve; discussion summary
  severity of vincristine induced changes in sensory nerve conduction velocity: reduced the severity
Caudal nerve; discussion summary, SNCV and electromyographic responses
  rate of recovery after the termination of vincristine therapy: improved the rate of recovery
[3]; days 17 and 23 (intoxication phase), days 31 and 38 (recovery phase), 3-30 mg/kg IP
  EMG amplitude: significant and dose-related changes
[3]; discussion summary
  severity of vincristine induced changes in electromyographic responses: reduced the severity
Sciatic nerve
  number of myelinated nerve fibers in sciatic nerve biopsies versus vincristine alone: greater numbers of myelinated nerve fibers
BDNF
  BDNF levels in the spinal cord: significant dose-related increases
[4]
  peripheral / collateral nerve sprouting: induce peripheral nerve sprouting; also recorded: induces vigorous collateral sprouting
Axonal regeneration
  axonal regeneration after nerve crush: no effect
[5]
  hyperalgesia: without the induction of hyperalgesia; also recorded: did not induce hyperalgesia
NGF [6]
  endogenous NGF levels in skin: up-regulation
[7]
  safety in patients: proven safe
NGF [8]
  production of NGF mRNA: increases the production of mRNAs
[9]
  production of bFGF mRNA: increases the production of mRNAs
Neurotrophin 3 (NT-3)
  production of NT-3 mRNA: increases the production of mRNAs
NGF [10]
  secretion of NGF into the culture medium: enhanced the secretion
TGF
  secretion of TGF into the culture medium: enhanced the secretion
S 100
  secretion of S 100 into the culture medium: enhanced the secretion

## O=C(CCn1cnc2c(=O)[nH]cnc21)NCCCN1CCCC1=O [AIT-034]
[2]; all concentrations (0.01-100 μM)
  effect on survival: ineffective
